Where two headings read alike, the source gives them in different places.

In data set [1] the test system is adult males and females treated for nocturia. The data set is described as follows: Clinical observations in adult males and females treated with desmopressin for nocturia. Type of data set: in vivo, human. From the text:
Hyponatremia can result in seizures, cardiac arrhythmias, cerebral edema and death.

The nature of data set [2]: Bioavailability of desmopressin conventional tablets (Comparative Example 4). The note with it: male, human, in vivo, po, 200 μg. From the text:
Thirty-six healthy male volunteers (Caucasian, Black and Hispanic) were enrolled in this study, which was designed as an open label, single dose, 3-way crossover study.

For data set [3] the following is noted: in vivo; cited from earlier work.
The nature of another data set: clinical. The note with it: male, human, in vivo. As for the experimental part:
Twenty-four healthy non-smoking male volunteers were enrolled in the present study. The study was designed as a one-centre, open-labelled, randomized, balanced, 4-way cross-over phase I study. […] Between the doses there was a washout period of 72 hours. In order to standardize the buccal mucosa before administration of the orodispersible tablet, the subjects were asked to avoid foods, chewing gun etc. Subjects were allowed to brush their teeth in the morning before dosing, but without toothpaste. […] 3.2 (Pharsight Corporation, US). […] Values below LOQ not followed by values above the LOQ are excluded from the NCA analysis, and set to zero in the descriptive statistics on concentrations.

For data set [4] the following is noted: human, in vivo, cited from earlier work.

In general, bioavailability refers to the share of a dose that reaches the circulation, judged against a reference dose that is usually intravenous. `NC(=O)CC[C@@H]1NC(=O)[C@H](Cc2ccccc2)NC(=O)[C@H](Cc2ccc(O)cc2)NC(=O)CCSSC[C@@H](C(=O)N2CCC[C@H]2C(=O)N[C@H](CCCN=C(N)N)C(=O)NCC(N)=O)NC(=O)[C@H](CC(N)=O)NC1=O` [desmopressin, 1-desamino-8-D-arginine vasopressin]: the incidence of nocturia entry in data set [1] (oral doses 100 to 400 mcg and intranasal doses 10 to 20 mcg) is listed as “decreased the incidence of nocturia”. Besides, the incidence of hyponatremia result in data set [1] (standard oral doses 100 to 400 mcg and intranasal doses 10 to 20 mcg, nocturia patients) is “unexpectedly high incidence of hyponatremia”. For the same compound, the bioavailability in data set [2] (oral 1×200 μg tablet (Comparative Example 2)) is 0.16%; in data set [2] (oral 2×100 μg tablets (Comparative Example 3)) it was 0.13%; in “clinical”, 0.23 to 0.38%; in the data set “clinical” (bioavailability), 0.3%; in data set [4] (po) it was 0.1-0.15%. Besides, in data set [3], the absorption result was “not significantly absorbed”. Moreover, the “% Bioavailability” value is reported as “Intravenous (100) %” in data set [4] (iv), “Oral (0.1) %” in data set [4] (po) and “Subcutaneous (±90) %” in data set [4] (sc).

Values taken from US8143225B2 (priority 2002, dated 2012).
